From patent publication US9308198B2, “Treatment, prevention, and reversal of alcohol-induced brain disease” (priority 2006, dated 2016)

Legend:
[1] = test system: primary cerebellar neuron cultures; conditions: 10 mM for 3 hours; control and ethanol-exposed cultures
Experimental: In vitro experiments were used to examine the effects of ethanol on receptor binding and choline acetyltransferase (ChAT) and acetylcholinesterase (AChE) expression in cerebellar neurons. Primary neuronal cultures were generated with postnatal day 8 rat pup cerebellar tissue (Nikolic et al. Genes Dev. 10:816 (1996)). The cultures were maintained with Dulbecco's modified Eagle's medium (DMEM) supplemented with 5% fetal calf serum, 4 mM glutamine, 100 μM non-essential amino acid mixture (Gibco-BRL, Grand Island, N.Y.), 25 mM KCl, and 9 g/L glucose. Ethanol treatment was accomplished by placing the cultures (seeded in 6-well dishes or 96-well plates) in sealed chambers in which 50 mM ethanol was vaporized from a reservoir tray (de la Monte et al. Alcohol Clin. Exp. Res. 24:716 (2000); Banerjee et al. Alcohol Clin. Exp. Res. 22:2093 (1998)). Control cultures were identically treated but with water added to the reservoir tray. The chambers were flushed with gas containing 75% nitrogen, 20% oxygen, and 5% carbon dioxide. After 96 hours incubation at 37° C., the cells were harvested to measure insulin, IGF-I, and IGF-II receptor binding. Alternatively, the cells were serum-starved for 12 hours and then stimulated with 10 nM insulin, […], 25 nM IGF-II, or vehicle for 16 hours, and RNA was harvested to measure ChAT and AChE expression. Parallel 96-well cultures stimulated with growth factors for 10 minutes were used to measure ATP, or for 16 hours to measure viability, and ChAT or AChE immunoreactivity. […] To examine the effects of membrane cholesterol content on growth factor stimulated neuronal viability and function, identically treated 96-well cultures were stimulated with vehicle, 10 nM insulin, 10 nM IGF-I, or 25 nM IGF-II for 10 minutes and then analyzed for ATP content, or for 16 hours and then used to measure viability and ChAT or AChE immunoreactivity with the MICE assay (de la Monte et al., Biotechniques 26:1073 (1999)). ATP content was measured with the ATPLite assay (Packard, Meriden, Conn.). Viability was measured using the CyQuant assay (Molecular Probes, Eugene, Oreg.). Immunoreactivity was measured directly in the cultured wells using the microtiter immunocytochemical ELISA (MICE) assay (de la Monte et al., Biotechniques 26:1073 (1999)).
The effects of cholesterol or MβCD treatment on neuronal viability (FIGS. 19A-19C), ATP production (energy metabolism; FIGS. 19D-19F), ChAT (FIGS. […]) and AChE (FIGS. 19J-19L) immunoreactivity were examined in cells that were treated as described above and stimulated 12 hours with vehicle (control), 10 nM insulin, 10 nM IGF-I, or 25 nM IGF-II in serum-free medium. […] Viability was measured using the CyQuant assay and ATP content was measured using the ATPLite assay. […]

AChE = AChE immunoreactivity (MICE assay); assay type: cell-based; conditions: 10 mM for 3 hours; control and ethanol-exposed cells
Experimental: In vitro experiments were used to examine the effects of ethanol on receptor binding and choline acetyltransferase (ChAT) and acetylcholinesterase (AChE) expression in cerebellar neurons. Primary neuronal cultures were generated with postnatal day 8 rat pup cerebellar tissue (Nikolic et al. Genes Dev. 10:816 (1996)). The cultures were maintained with Dulbecco's modified Eagle's medium (DMEM) supplemented with 5% fetal calf serum, 4 mM glutamine, 100 μM non-essential amino acid mixture (Gibco-BRL, Grand Island, N.Y.), 25 mM KCl, and 9 g/L glucose. […] To examine the effects of membrane cholesterol content on growth factor stimulated neuronal viability and function, identically treated 96-well cultures were stimulated with vehicle, 10 nM insulin, 10 nM IGF-I, or 25 nM IGF-II for 10 minutes and then analyzed for ATP content, or for 16 hours and then used to measure viability and ChAT or AChE immunoreactivity with the MICE assay (de la Monte et al., Biotechniques 26:1073 (1999)). ATP content was measured with the ATPLite assay (Packard, Meriden, Conn.). Viability was measured using the CyQuant assay (Molecular Probes, Eugene, Oreg.). Immunoreactivity was measured directly in the cultured wells using the microtiter immunocytochemical ELISA (MICE) assay (de la Monte et al., Biotechniques 26:1073 (1999)). […]

cerebellar ATP content = conditions: rat, in vivo
Experimental: Studies were done to characterize the degree to which ethanol-associated impairments in receptor binding were associated with reductions in insulin and IGF-I receptor tyrosine kinase activities, and insulin and IGF-I receptor protein expression. Receptor protein levels were measured by Western blotting with digital image densitometry.

| Compound | mitochondrial function (ATP content) [1] | neuronal viability [1] | mean levels of AChE (AChE) | cerebellar ATP content (cerebellar ATP content) |
| --- | --- | --- | --- | --- |
| CC(C)CCC[C@@H](C)[C@H]1CC[C@H]2[C@@H]3CC=C4C[C@@H](O)CC[C@]4(C)[C@H]3CC[C@]12C [cholesterol] | broadly reduced | broadly reduced | significantly increased |  |
| CCO [ethanol] |  |  |  | dose-dependent progressive reductions |
| Methyl-β-cyclodextrin [MβCD] | broadly reduced | broadly reduced | significantly increased |  |
